Experimental data published in PubChem BioAssay (NCI).
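Growth conditions: 96-well plates. Treatment: test compound, 48 hours, 5 concentrations. Analysis: linear interpolation between bracketing concentrations; unreached endpoints set to highest concentration. GI50 marks 50% less growth. Definition used: TGI = concentration required for complete inhibition of growth.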

What was measured:
Assay in all cases: NCI-60 cell line screen, 48 h
[1] = system: RXF 393 renal
[2] = system: IGROV1 ovarian
[3] = system: MDA-MB-435
[4] = system: HT29 colon
[5] = system: DU-145 prostate
[6] = system: KM12 colon
[7] = system: RPMI-8226 leukemia
[8] = system: SK-OV-3 ovarian
[9] = system: UO-31 renal
[10] = system: NCI-H522 lung
[11] = system: OVCAR-3 ovarian
[12] = system: 786-0 renal
[13] = system: MDA-MB-231 breast
[14] = system: LOX IMVI melanoma
[15] = system: OVCAR-4 ovarian
[16] = system: SF-539 CNS
[17] = system: OVCAR-5 ovarian
[18] = system: PC-3 prostate
[19] = system: NCI-H460 lung
[20] = system: HCC-2998 colon
[21] = system: BT-549 breast
[22] = system: OVCAR-8 ovarian
[23] = system: SK-MEL-5 melanoma
[24] = system: COLO 205 colon
[25] = system: SK-MEL-28 melanoma
[26] = system: HOP-92 NSCLC
[27] = system: UACC-62 melanoma
[28] = system: NCI-H226 lung
[29] = system: HOP-62 NSCLC
[30] = system: SW-620 colon
[31] = system: MOLT-4 leukemia
[32] = system: CAKI-1 renal
[33] = system: SF-295 CNS
[34] = system: SR leukemia
[35] = system: HS 578T breast
[36] = system: MCF7 breast
[37] = system: SNB-19 CNS
[38] = system: TK-10 renal
[39] = system: UACC-257 melanoma
[40] = system: U251 CNS
[41] = system: SNB-75 CNS
[42] = system: EKVX NSCLC
[43] = system: HL-60(TB) leukemia
[44] = system: NCI/ADR-RES ovarian
[45] = system: SN12C renal
[46] = system: A549 NSCLC
[47] = system: K-562 leukemia
[48] = system: A498 renal
[49] = system: SK-MEL-2 melanoma
[50] = system: ACHN renal
[51] = system: SF-268 CNS
[52] = system: HCT-116 colon
[53] = system: NCI-H23 lung
[54] = system: HCT-15 colon
[55] = system: CCRF-CEM leukemia
[56] = system: T-47D breast
[57] = system: M14 melanoma
[58] = system: MALME-3M melanoma

## COc1ccc(/C=C(\C#N)c2cc(OC)c3c(c2)OCO3)cc1
[1]
  GI50: < 0.01 µM
  TGI: 30.6 µM
[2]
  GI50: 0.0212 µM
  TGI: 32 µM
[3]
  GI50: < 0.01 µM
[4]
  GI50: < 0.01 µM
  TGI: 0.694 µM
[5]
  GI50: 0.0256 µM
  TGI: 0.186 µM
[6]
  GI50: < 0.01 µM
  TGI: 1.66 µM
[7]
  GI50: 0.019 µM
  TGI: 27 µM
[8]
  GI50: < 0.0111 µM
  TGI: 0.458 µM
[9]
  GI50: 0.251 µM
  TGI: > 55.8 µM
[10]
  GI50: < 0.01 µM
[11]
  GI50: < 0.01 µM
  TGI: < 0.0136 µM
[12]
  GI50: < 0.0215 µM
  TGI: 17.2 µM
[13]
  GI50: 0.0553 µM
  TGI: 46.3 µM
[14]
  GI50: 0.0271 µM
  TGI: > 100 µM
[15]
  GI50: 0.0617 µM
  TGI: > 66.6 µM
[16]
  GI50: < 0.0131 µM
  TGI: 11.5 µM
[17]
  GI50: 0.0797 µM
  TGI: 80.9 µM
[18]
  GI50: 0.0101 µM
  TGI: 38.1 µM
[19]
  GI50: < 0.01 µM
  TGI: 4.28 µM
[20]
  GI50: 0.0264 µM
  TGI: 1.41 µM
[21]
  GI50: 0.0657 µM
  TGI: 83.2 µM
[22]
  GI50: 0.026 µM
  TGI: 34.5 µM
[23]
  GI50: 0.0101 µM
  TGI: 0.245 µM
[24]
  GI50: < 0.0124 µM
  TGI: 0.0521 µM
[25]
  GI50: 0.0117 µM
  TGI: 44.8 µM
[26]
  GI50: 8.09 µM
  TGI: 52.2 µM
[27]
  GI50: < 0.01 µM
  TGI: > 100 µM
[28]
  GI50: 0.0249 µM
  TGI: 2.56 µM
[29]
  GI50: < 0.0125 µM
  TGI: 24.1 µM
[30]
  GI50: < 0.01 µM
  TGI: > 100 µM
[31]
  GI50: 0.0402 µM
  TGI: > 100 µM
[32]
  GI50: 0.465 µM
  TGI: 90.8 µM
[33]
  GI50: < 0.01 µM
  TGI: 21 µM
[34]
  GI50: < 0.01 µM
  TGI: > 100 µM
[35]
  GI50: 0.01 µM
  TGI: 39.1 µM
[36]
  GI50: < 0.0118 µM
  TGI: 19.8 µM
[37]
  GI50: 0.0278 µM
  TGI: > 100 µM
[38]
  GI50: 0.56 µM
  TGI: 41.1 µM
[39]
  GI50: 17 µM
  TGI: 57 µM
[40]
  GI50: < 0.0179 µM
  TGI: 69.9 µM
[41]
  GI50: 0.0102 µM
[42]
  GI50: 1.98 µM
  TGI: > 100 µM
[43]
  GI50: 0.0128 µM
  TGI: 54.7 µM
[44]
  GI50: < 0.01 µM
  TGI: 0.58 µM
[45]
  GI50: 0.0583 µM
  TGI: > 100 µM
[46]
  GI50: < 0.0148 µM
  TGI: 44.1 µM
[47]
  GI50: < 0.01 µM
  TGI: > 100 µM
[48]
  GI50: < 0.01 µM
  TGI: 0.193 µM
[49]
  GI50: < 0.017 µM
  TGI: 2.81 µM
[50]
  GI50: 0.0449 µM
  TGI: 67.7 µM
[51]
  GI50: < 0.01 µM
  TGI: 52.6 µM
[52]
  GI50: < 0.0121 µM
  TGI: 4.39 µM
[53]
  GI50: < 0.0143 µM
  TGI: 24.3 µM
[54]
  GI50: 0.0118 µM
  TGI: > 73.6 µM
[55]
  GI50: 0.0226 µM
  TGI: > 100 µM

## N#C[C@](CO)(NC(=O)OCc1ccccc1)C(F)F
[1]
  TGI: > 100 µM
[2]
  TGI: > 100 µM
[3]
  TGI: > 100 µM
[4]
  TGI: > 100 µM
[5]
  TGI: > 100 µM
[6]
  TGI: > 100 µM
[7]
  TGI: > 100 µM
[8]
  TGI: > 100 µM
[9]
  TGI: > 100 µM
[56]
  TGI: > 100 µM
[10]
  TGI: > 100 µM
[11]
  TGI: > 100 µM
[12]
  TGI: > 100 µM
[13]
  TGI: > 100 µM
[14]
  TGI: > 100 µM
[15]
  TGI: > 100 µM
[17]
  TGI: > 100 µM
[18]
  TGI: > 100 µM
[19]
  TGI: > 100 µM
[20]
  TGI: > 100 µM
[21]
  TGI: > 100 µM
[22]
  TGI: > 100 µM
[23]
  TGI: > 100 µM
[24]
  TGI: > 100 µM
[25]
  TGI: > 100 µM
[26]
  TGI: > 100 µM
[27]
  TGI: > 100 µM
[28]
  TGI: > 100 µM
[29]
  TGI: > 100 µM
[30]
  TGI: > 100 µM
[31]
  TGI: > 100 µM
[57]
  TGI: > 100 µM
[32]
  TGI: > 100 µM
[33]
  TGI: > 100 µM
[34]
  TGI: > 100 µM
[35]
  TGI: > 100 µM
[37]
  TGI: > 100 µM
[38]
  TGI: > 100 µM
[39]
  TGI: > 100 µM
[40]
  TGI: > 100 µM
[41]
  TGI: > 100 µM
[42]
  TGI: > 100 µM
[43]
  TGI: > 100 µM
[44]
  TGI: > 100 µM
[46]
  TGI: > 100 µM
[47]
  TGI: > 100 µM
[48]
  TGI: > 100 µM
[49]
  TGI: > 100 µM
[50]
  TGI: > 100 µM
[51]
  TGI: > 100 µM
[52]
  TGI: > 100 µM
[53]
  TGI: > 100 µM
[54]
  TGI: > 100 µM
[55]
  TGI: > 100 µM
[58]
  TGI: > 100 µM
